# US20230167120A1, “ARYL-FUSED ISOSELENAZOLE COMPOUND CONTAINING TETRAZINE SUBSTITUENT, SYNTHESIS METHOD THEREFOR, AND USE THEREOF” (KEAISE MEDICINE WUHAN CORP., priority 2020, published 2023)
# What was measured:
# [1] = tested on: U251MG human glioma cells; assay: In-vitro anti-cancer activity screening, SRB method, U251MG; assay type: cell-based; conditions: U-251
# Protocol: (§1) Referring to the method of example 9, two tumor cell lines, U251MG and U251TR human glioma cells, were selected, and temozolomide and the compounds of the present disclosure were subjected to in-vitro anti-cancer activity screening using the SRB method.
# [2] = tested on: human glioma cells (LN229); assay: In-vitro growth inhibition, MTT method, LN229; assay type: cell-based; conditions: LN-229, 48 h
# Protocol: (§2) The in-vitro growth inhibitory activity of compounds 1 to 8 of the present disclosure against human glioma cells (U87 and LN229), human hepatoma cells (SMMC-7721) and human pancreatic carcinoma cells (Panc1) was studied adopting the MTT method.
# (§3) U87, LN229, SMMC-7721 and Panc1 cells growing at log phase were separately inoculated into a 96-well plate at a density of 5×10^4 cells/mL, 180 μL/well. After the cells were attached to the wall, 20 μL of a drug liquid was added to each well, so that the final concentrations of the drug were 0 μM, 5 μM, 10 μM, 20 μM and 50 μM. After 48 h of action, a 5 mg/mL MTT solution (20 μL/well) was added. After the cells were incubated in a CO2 incubator for 3 to 4 h, the supernatant was carefully discarded. After the residual liquid was air-dried, acidified isopropanol (50 μL of concentrated hydrochloric acid dissolved in 500 mL of isopropanol) was added at […], and the plate was shaken on a shaker for 30 min. After the crystals were completely dissolved, absorbance OD values were measured by a microplate reader at 570 nm.
# (§4) Cell viability %=(drug-treated cell OD−blank group OD)/(control cell OD−blank group OD)×100
# (§5) Cell killing rate %=1−cell viability %
# human glioma cell U87 [3] = assay: Tumor volume inhibition rate, i.v. dosing; assay type: in vivo, Balb/c nude mice; conditions: Mus musculus, iv, TMZ 10 mg·kg^−1, i.v.
# Protocol: In addition, low-dosage 0409 (20 mg·kg^−1, i.v.) and TMZ (10 mg·kg^−1, i.v.) were synchronously used for an assay to determine the volume tumor inhibition rate.
# [4] = tested on: U251TR human glioma cells; assay: In-vitro anti-cancer activity screening, SRB method, U251TR; assay type: cell-based; conditions: Glioma cell, drug-resistant strain
# Protocol: as §1
# [5] = tested on: human pancreatic carcinoma cells (Panc1); assay: In-vitro growth inhibition, MTT method, Panc1; assay type: cell-based; conditions: PANC-1, 48 h
# Protocol: as §2, §3, §4, §5
# human glioma cell U87 [6] = assay: Pharmacodynamic study in human glioma cell U87 subcutaneous model; assay type: in vivo, Balb/c nude mice; conditions: compounds 20 mg/Kg, q.d.×14 days
# From the text: The route of administration was intragastric administration ([…]., q.d.×14 days).
# human glioma cells (U87) = assay: In-vitro growth inhibition, MTT method, U87; assay type: cell-based; conditions: Glioma cell, 48 h
# Protocol: as §2
# as §3, with “After the cells were attached to the wall, 20 μL of a drug liquid was added to each well, so that the final concentrations of the drug were 0 μM, 5 μM, 10 μM, 20 μM and 50 μM.” left out
# as §4, §5
# [7] = tested on: human hepatoma cells (SMMC-7721); assay: In-vitro growth inhibition, MTT method, SMMC-7721; assay type: cell-based; conditions: 48 h
# Protocol: as §2, §3, §4, §5
# [8] = molecular target: T1, thioredoxin reductase (TrxR) (Homo sapiens, UniProt Q16881); conditions: read-out: Inhibitory activity against thioredoxin reductase (IC50) TrxR; cellular total protein, NADPH, DTNB, 405 nm
# T1 sequence (Q16881 1-649): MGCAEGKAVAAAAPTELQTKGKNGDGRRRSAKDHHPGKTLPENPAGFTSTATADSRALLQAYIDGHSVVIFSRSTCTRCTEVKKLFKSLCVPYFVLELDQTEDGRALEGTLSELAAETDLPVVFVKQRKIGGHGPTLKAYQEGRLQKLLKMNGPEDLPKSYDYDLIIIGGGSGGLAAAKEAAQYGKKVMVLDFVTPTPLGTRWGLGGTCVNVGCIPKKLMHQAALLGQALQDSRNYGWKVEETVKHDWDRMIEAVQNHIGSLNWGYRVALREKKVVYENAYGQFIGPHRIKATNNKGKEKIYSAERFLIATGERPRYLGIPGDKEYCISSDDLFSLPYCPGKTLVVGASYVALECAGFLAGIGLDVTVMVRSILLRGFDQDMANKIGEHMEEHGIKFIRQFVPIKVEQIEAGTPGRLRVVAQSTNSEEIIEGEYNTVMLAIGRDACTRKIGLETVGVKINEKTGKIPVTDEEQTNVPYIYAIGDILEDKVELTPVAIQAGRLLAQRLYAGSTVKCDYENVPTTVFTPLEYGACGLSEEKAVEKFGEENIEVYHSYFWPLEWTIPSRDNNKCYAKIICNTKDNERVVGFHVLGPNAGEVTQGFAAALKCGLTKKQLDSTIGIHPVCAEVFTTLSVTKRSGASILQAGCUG
# Protocol: The cellular total protein (i.e. thioredoxin reductase) was extracted and the concentration was determined. 30 μg of protein sample was added to a 96-well plate (3 replicate wells per concentration), and the volume was made up to 80 μL with 0.1 M sodium phosphate buffer. The protein samples were incubated in an oven at 37° C. for 30 min.
# The absorbance was immediately measured at 405 nm using a microplate reader (FlexStation 3, Molecular Devices). Shaking was performed for 10 s before the first reading, and determination was performed once every 15 s, 30 times in total. The maximum reaction rate was taken as an enzymatic activity index. The experiment was independently repeated three times.
# human glioma cell U87 [9] = assay: In-vivo antitumor activity, U87 tumor-bearing nude mice, i.g. dosing; design: species or system Balb/c nude mice; conditions: q.d., end of the experiment; for Tumor volume: 11 days
# From the text: The tumor emergence rate was 100%.
# The solvent was freshly prepared when needed each day.
# [10] = 240 h, Day 10, 20 mg·kg^−1, i.v.
# [11] = 264 h, Day 11, 20 mg·kg^−1, i.v.
# [12] = 288 h, Day 12, 20 mg·kg^−1, i.v.
# [13] = 312 h, Day 13, 20 mg·kg^−1, i.v.
# [14] = 336 h, Day 14, 20 mg·kg^−1, i.v.
# [15] = 360 h, Day 15, 20 mg·kg^−1, i.v.
# [16] = 384 h, Day 16, 20 mg·kg^−1, i.v.
# [17] = 408 h, Day 17, 20 mg·kg^−1, i.v.
# [18] = 432 h, Day 18, 20 mg·kg^−1, i.v.
# [19] = 0409 high-dose group 90 mg·kg^−1, i.g.
# [20] = 0409 low-dose group 45 mg·kg^−1, i.g.
smiles,measurement,setting,value
"Cc1ccc2[se]n(CCNC(=O)c3ncn4c(=O)n(C)nnc34)c(=O)c2c1 [Compound 6, 3,4-dihydro-3-methyl-4-oxo-N-(3(2H)-oxo-5-methyl-1,2-benzisoselenazol-2-yl)-ethyl-imidazo[5,1-d]-1,2,3,5-tetrazine-8-carboxamide]",IC50,[1],1.26 ± 0.83 µM
same,IC50,[2],11.3 ± 0.82 µM
same,inhibition in vivo at 20 mg/kg,human glioma cell U87 [3]; [10],91.5%
same,inhibition in vivo at 20 mg/kg,human glioma cell U87 [3]; [11],91.6%
same,inhibition in vivo at 20 mg/kg,human glioma cell U87 [3]; [12],90.1%
same,inhibition in vivo at 20 mg/kg,human glioma cell U87 [3]; [13],88.5%
same,inhibition in vivo at 20 mg/kg,human glioma cell U87 [3]; [14],88%
same,inhibition in vivo at 20 mg/kg,human glioma cell U87 [3]; [15],88.9%
same,inhibition in vivo at 20 mg/kg,human glioma cell U87 [3]; [16],87.5%
same,inhibition in vivo at 20 mg/kg,human glioma cell U87 [3]; [17],88.5%
same,inhibition in vivo at 20 mg/kg,human glioma cell U87 [3]; [18],88.3%
same,IC50,[4],29.4 ± 3.21 µM
same,IC50,[5],29.3 ± 0.42 µM
same,Tumor inhibition rate,human glioma cell U87 [6]; Day 1,9.05%
same,Tumor inhibition rate,human glioma cell U87 [6]; Day 4,68.76%
same,Tumor inhibition rate,human glioma cell U87 [6]; Day 7,84.09%
same,Tumor inhibition rate,human glioma cell U87 [6]; Day 10,86.55%
same,Tumor inhibition rate,human glioma cell U87 [6]; Day 14 (end of the experiment),92.48%
same,IC50,human glioma cells (U87),19.2 ± 3.77 µM
same,IC50,[7],11.2 ± 2.11 µM
"O=c1c2ccccc2[se]n1CCCCn1[se]c2ccccc2c1=O [BS, Butaselen]",IC50,[8],1.14 ± 0.17 µM
"Cn1nnc2c(C(=O)NCCn3[se]c4ccccc4c3=O)ncn2c1=O [Compound 1, 3,4-dihydro-3-methyl-4-oxo-N-(3(2H)-oxo-1,2-benzisoselenazol-2-yl)-ethyl-imidazo[5,1-d]-1,2,3,5-tetrazine-8-carboxamide]",IC50,[1],48.9 ± 9.33 µM
same,Tumor volume,human glioma cell U87 [9]; [19],90.00±32.64 mm^3
same,Tumor proliferation inhibition rate,human glioma cell U87 [9]; [19],83.97%
same,Tumor weight,human glioma cell U87 [9]; [19],0.12 ± 0.04 g
same,Tumor volume,human glioma cell U87 [9]; [20],96.70±24.08 mm^3
same,Tumor proliferation inhibition rate,human glioma cell U87 [9]; [20],82.78%
same,Tumor weight,human glioma cell U87 [9]; [20],0.20 ± 0.10 g
same,IC50,[2],14.4 ± 2.24 µM
same,inhibition in vivo at 20 mg/kg,human glioma cell U87 [3]; [10],74.8%
same,inhibition in vivo at 20 mg/kg,human glioma cell U87 [3]; [11],73.8%
same,inhibition in vivo at 20 mg/kg,human glioma cell U87 [3]; [12],69.8%
same,inhibition in vivo at 20 mg/kg,human glioma cell U87 [3]; [13],79.8%
same,inhibition in vivo at 20 mg/kg,human glioma cell U87 [3]; [14],81.4%
same,inhibition in vivo at 20 mg/kg,human glioma cell U87 [3]; [15],80.5%
same,inhibition in vivo at 20 mg/kg,human glioma cell U87 [3]; [16],78.5%
same,inhibition in vivo at 20 mg/kg,human glioma cell U87 [3]; [17],82.3%
same,inhibition in vivo at 20 mg/kg,human glioma cell U87 [3]; [18],81.7%
same,IC50,[4],51.9 ± 21.9 µM
same,IC50,[5],17.8 ± 3.44 µM
same,Tumor inhibition rate,human glioma cell U87 [6]; Day 1,5.86%
same,Tumor inhibition rate,human glioma cell U87 [6]; Day 4,58.78%
same,Tumor inhibition rate,human glioma cell U87 [6]; Day 7,78.57%
same,Tumor inhibition rate,human glioma cell U87 [6]; Day 10,74.77%
same,Tumor inhibition rate,human glioma cell U87 [6]; Day 14 (end of the experiment),81.42%
same,IC50,human glioma cells (U87),21 ± 3.07 µM
same,IC50,[7],12 ± 1.57 µM
